Source: patent US12077503B2, “Substituted cyclic amides and their use as herbicides” (FMC CORPORATION, priority 2015, dated 2024)
Where two headings read alike, the source gives them in different places.

Legend:
Type in all cases: in vivo
Kochia (Kochia scoparia) [1] = assay: Test A preemergence; details: Bassia scoparia, pre-emergence, 240 h; for pest or weed control at 125 g/ha: 125 g ai/ha; for pest or weed control at 500 g/ha: 500 g ai/ha
Method in brief: (§1)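 Treatment is preemergence as a directed soil spray after planting, or postemergence at the one- to two-leaf stage, with test chemical in a non-phytotoxic solvent mixture plus surfactant. Plants stay in the greenhouse about 10 d before visual injury scoring on a 0 to 100 scale versus untreated controls.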

[2] = test system: barnyardgrass (Echinochloa crus-galli); assay: Test A preemergence; details: Echinochloa crus-galli, pre-emergence, 240 h; for pest or weed control at 125 g/ha: 125 g ai/ha; for pest or weed control at 500 g/ha: 500 g ai/ha
Method in brief: as §1

[3] = test system: giant foxtail (Setaria faberii); assay: Test A preemergence; details: Setaria faberi, pre-emergence, 240 h; for pest or weed control at 125 g/ha: 125 g ai/ha; for pest or weed control at 500 g/ha: 500 g ai/ha
Method in brief: as §1

[4] = test system: pigweed (Amaranthus retroflexus); assay: Test A preemergence; details: Amaranthus retroflexus, pre-emergence, 240 h; for pest or weed control at 125 g/ha: 125 g ai/ha; for pest or weed control at 500 g/ha: 500 g ai/ha
[5] = test system: ragweed (common ragweed, Ambrosia elatior); assay: Test A preemergence; details: Ambrosia artemisiifolia, pre-emergence, 240 h; for pest or weed control at 125 g/ha: 125 g ai/ha; for pest or weed control at 500 g/ha: 500 g ai/ha
Method in brief: as §1

[6] = test system: ryegrass, Italian (Italian ryegrass, Lolium multiflorum); assay: Test A preemergence; details: Lolium multiflorum, pre-emergence, 240 h; for pest or weed control at 125 g/ha: 125 g ai/ha; for pest or weed control at 500 g/ha: 500 g ai/ha
Method in brief: as §1

Kochia (Kochia scoparia) [7] = assay: Test A postemergence; details: Bassia scoparia, post-emergence, 240 h, 125 g ai/ha, postemergence; visual injury after approximately 10 d; 0 to 100 scale (0 no effect, 100 complete control); read-out: Plant response rating, Kochia
Method in brief: as §1

[8] = test system: blackgrass (Alopecurus myosuroides); assay: Test A postemergence; details: Alopecurus myosuroides, post-emergence, 240 h; for pest or weed control at 125 g/ha: 125 g ai/ha
Method in brief: as §1

[9] = test system: ragweed (common ragweed, Ambrosia elatior); assay: Test A postemergence; details: Ambrosia artemisiifolia, post-emergence, 240 h; for pest or weed control at 125 g/ha: 125 g ai/ha
Method in brief: as §1

[10] = test system: ryegrass, Italian (Italian ryegrass, Lolium multiflorum); assay: Test A postemergence; details: Lolium multiflorum, post-emergence, 240 h; for pest or weed control at 125 g/ha: 125 g ai/ha
Method in brief: as §1

[11] = test system: barnyardgrass (Echinochloa crus-galli); assay: Test B flooded paddy test; details: Echinochloa crus-galli, Flood, 250 g ai/ha
Method in brief: (§2)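 Response scored visually against untreated controls, 0 = no effect and 100 = complete control, 13–15 d after treatment in the greenhouse. Compounds added to paddy water held 3 cm above soil surface. Treatment given at 2-leaf stage.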

[12] = test system: ducksalad (Heteranthera limosa); assay: Test B flooded paddy test; details: Heteranthera limosa, Flood, 250 g ai/ha
Method in brief: as §2

rice (Oryra sativa) = assay: Test B flooded paddy test; details: Oryza sativa, Flood, 250 g ai/ha
Method in brief: as §2

[13] = test system: sedge, umbrella (small-flower umbrella sedge, Cyperus difformis); assay: Test B flooded paddy test; details: Cyperus difformis, Flood, 250 g ai/ha
Method in brief: as §2

[14] = test system: wheat (Triticum aestivum); assay: Test A postemergence; details: Triticum aestivum, post-emergence, 240 h, Postemergence
Method in brief: as §1

Q: For `Cc1cc([C@H]2CNC(=O)[C@@H]2C(=O)Nc2ccc(F)cc2F)ccc1Cl` [Compound 791], which pest or weed control at 125 g/ha (Kochia (Kochia scoparia) [1]; preemergence, visual rating after approx. 10 d, 0 to 100 scale where 0 is no effect and 100 is complete control, read-out: Plant response rating, Kochia) is on record?
A: 50%

Q: What about the pest or weed control at 500 g/ha (Kochia (Kochia scoparia) [1]; Preemergence, visual injury vs untreated controls after approximately 10 d, read-out: Kochia plant response rating (0 to 100 scale where 0 is no effect and 100 is complete control)) of the same compound?
A: 60%

Q: And the pest or weed control at 125 g/ha ([2]; preemergence, visual rating after approx. 10 d, 0 to 100 scale where 0 is no effect and 100 is complete control, read-out: Plant response rating, Barnyardgrass)?
A: 90%

Q: And the pest or weed control at 500 g/ha ([2]; Preemergence, visual injury vs untreated controls after approximately 10 d, read-out: Barnyardgrass plant response rating (0 to 100 scale where 0 is no effect and 100 is complete control))?
A: 90%

Q: What about the pest or weed control at 125 g/ha ([3]; preemergence, visual rating after approx. 10 d, 0 to 100 scale where 0 is no effect and 100 is complete control, read-out: Plant response rating, Foxtail, Giant) of the same compound?
A: 50%

Q: What about the pest or weed control at 500 g/ha ([3]; Preemergence, visual injury vs untreated controls after approximately 10 d, read-out: Foxtail, Giant plant response rating (0 to 100 scale where 0 is no effect and 100 is complete control)) of the same compound?
A: 90%

Q: What about the pest or weed control at 125 g/ha ([4]; preemergence, visual rating after approx. 10 d, 0 to 100 scale where 0 is no effect and 100 is complete control, read-out: Plant response rating, Pigweed) of the same compound?
A: 0%

Q: What about the pest or weed control at 500 g/ha ([4]; Preemergence, visual injury vs untreated controls after approximately 10 d, read-out: Pigweed plant response rating (0 to 100 scale where 0 is no effect and 100 is complete control)) of the same compound?
A: 0%

Q: And the pest or weed control at 125 g/ha ([5]; preemergence, visual rating after approx. 10 d, 0 to 100 scale where 0 is no effect and 100 is complete control, read-out: Plant response rating, Ragweed)?
A: 0%

Q: And the pest or weed control at 500 g/ha ([5]; Preemergence, visual injury vs untreated controls after approximately 10 d, read-out: Ragweed plant response rating (0 to 100 scale where 0 is no effect and 100 is complete control))?
A: 40%

Q: And the pest or weed control at 125 g/ha ([6]; preemergence, visual rating after approx. 10 d, 0 to 100 scale where 0 is no effect and 100 is complete control, read-out: Plant response rating, Ryegrass, Italian)?
A: 0%

Q: What about the pest or weed control at 500 g/ha ([6]; Preemergence, visual injury vs untreated controls after approximately 10 d, read-out: Ryegrass, Italian plant response rating (0 to 100 scale where 0 is no effect and 100 is complete control)) of the same compound?
A: 20%

Q: And the pest or weed control at 125 g/ha (Kochia (Kochia scoparia) [7])?
A: 20%

Q: And the pest or weed control at 125 g/ha ([8]; postemergence, visual injury after approximately 10 d, 0 to 100 scale (0 no effect, 100 complete control), read-out: Plant response rating, Blackgrass)?
A: 0%

Q: What about the pest or weed control at 125 g/ha ([9]; postemergence, visual injury after approximately 10 d, 0 to 100 scale (0 no effect, 100 complete control), read-out: Plant response rating, Ragweed) of the same compound?
A: 0%

Q: And the pest or weed control at 125 g/ha ([10]; postemergence, visual injury after approximately 10 d, 0 to 100 scale (0 no effect, 100 complete control), read-out: Plant response rating, Ryegrass, Italian)?
A: 0%

Q: What about the pest or weed control at 250 g/ha ([11]; scale of 0 to 100 where 0 is no effect and 100 is complete control, read-out: Barnyardgrass plant response rating) of the same compound?
A: 0%

Q: What about the pest or weed control at 250 g/ha ([12]; scale of 0 to 100 where 0 is no effect and 100 is complete control, read-out: Ducksalad plant response rating) of the same compound?
A: 100%

Q: What about the pest or weed control at 250 g/ha (rice (Oryra sativa); scale of 0 to 100 where 0 is no effect and 100 is complete control, read-out: Rice plant response rating) of the same compound?
A: 0%

Q: And the pest or weed control at 250 g/ha ([13]; scale of 0 to 100 where 0 is no effect and 100 is complete control, read-out: Sedge, Umbrella plant response rating)?
A: 0%

Q: `CN1C[C@H](c2ccc(C(F)(F)F)cc2)[C@@H](C(=O)Nc2cccc(C#N)c2F)C1=O` [Compound 1381] was tested. Which pest or weed control at 500 g/ha (Kochia (Kochia scoparia) [1]; preemergence, 0 to 100 scale (0 no effect, 100 complete control), read-out: Plant response rating, Kochia) did it give?
A: 80%

Q: What about the pest or weed control at 125 g/ha (Kochia (Kochia scoparia) [1]; Preemergence, 0 to 100 scale (0 no effect, 100 complete control), read-out: Plant response rating, Kochia) of the same compound?
A: 80%

Q: What about the pest or weed control at 500 g/ha ([2]; preemergence, 0 to 100 scale (0 no effect, 100 complete control), read-out: Plant response rating, Barnyardgrass) of the same compound?
A: 100%

Q: What about the pest or weed control at 125 g/ha ([2]; Preemergence, 0 to 100 scale (0 no effect, 100 complete control), read-out: Plant response rating, Barnyardgrass) of the same compound?
A: 90%

Q: What about the pest or weed control at 500 g/ha ([3]; preemergence, 0 to 100 scale (0 no effect, 100 complete control), read-out: Plant response rating, Foxtail, Giant) of the same compound?
A: 100%

Q: And the pest or weed control at 125 g/ha ([3]; Preemergence, 0 to 100 scale (0 no effect, 100 complete control), read-out: Plant response rating, Foxtail, Giant)?
A: 100%

Q: What about the pest or weed control at 500 g/ha ([4]; preemergence, 0 to 100 scale (0 no effect, 100 complete control), read-out: Plant response rating, Pigweed) of the same compound?
A: 100%

Q: And the pest or weed control at 125 g/ha ([4]; Preemergence, 0 to 100 scale (0 no effect, 100 complete control), read-out: Plant response rating, Pigweed)?
A: 90%

Q: And the pest or weed control at 500 g/ha ([5]; preemergence, 0 to 100 scale (0 no effect, 100 complete control), read-out: Plant response rating, Ragweed)?
A: 80%

Q: And the pest or weed control at 125 g/ha ([5]; Preemergence, 0 to 100 scale (0 no effect, 100 complete control), read-out: Plant response rating, Ragweed)?
A: 70%

Q: And the pest or weed control at 500 g/ha ([6]; preemergence, 0 to 100 scale (0 no effect, 100 complete control), read-out: Plant response rating, Ryegrass, Italian)?
A: 50%

Q: What about the pest or weed control at 125 g/ha ([6]; Preemergence, 0 to 100 scale (0 no effect, 100 complete control), read-out: Plant response rating, Ryegrass, Italian) of the same compound?
A: 30%

Q: And the pest or weed control at 125 g/ha ([8]; Postemergence, visual rating about 10 d after treatment, read-out: Blackgrass plant response rating (0 to 100 scale))?
A: 40%

Q: What about the pest or weed control at 500 g/ha ([8]; Postemergence, 500 g ai/ha, visual injury, 0 to 100 scale (0 no effect, 100 complete control), approx. 10 d, read-out: Plant response rating, Blackgrass) of the same compound?
A: 60%

Q: What about the pest or weed control at 125 g/ha ([9]; Postemergence, visual rating about 10 d after treatment, read-out: Ragweed plant response rating (0 to 100 scale)) of the same compound?
A: 50%

Q: And the pest or weed control at 500 g/ha ([9]; Postemergence, 500 g ai/ha, visual injury, 0 to 100 scale (0 no effect, 100 complete control), approx. 10 d, read-out: Plant response rating, Ragweed)?
A: 60%

Q: And the pest or weed control at 125 g/ha ([10]; Postemergence, visual rating about 10 d after treatment, read-out: Ryegrass, Italian plant response rating (0 to 100 scale))?
A: 50%

Q: And the pest or weed control at 500 g/ha ([10]; Postemergence, 500 g ai/ha, visual injury, 0 to 100 scale (0 no effect, 100 complete control), approx. 10 d, read-out: Plant response rating, Ryegrass, Italian)?
A: 60%

Q: And the plant injury at 125 g/ha ([14]; 125 g ai/ha, visual rating about 10 d after treatment, read-out: Wheat plant response rating (0 to 100 scale))?
A: 30%

Q: What about the plant injury at 500 g/ha ([14]; 500 g ai/ha, visual injury, 0 to 100 scale (0 no effect, 100 complete control), approx. 10 d, read-out: Plant response rating, Wheat) of the same compound?
A: 50%

Q: What about the pest or weed control at 250 g/ha ([11]; 360 h, visually evaluated after 13 to 15 d, read-out: Plant response rating, Barnyardgrass (0 to 100 scale where 0 is no effect and 100 is complete control)) of the same compound?
A: 65%

Q: What about the pest or weed control at 250 g/ha ([12]; 360 h, visually evaluated after 13 to 15 d, read-out: Plant response rating, Ducksalad (0 to 100 scale where 0 is no effect and 100 is complete control)) of the same compound?
A: 100%

Q: What about the pest or weed control at 250 g/ha (rice (Oryra sativa); 360 h, visually evaluated after 13 to 15 d, read-out: Plant response rating, Rice (0 to 100 scale where 0 is no effect and 100 is complete control)) of the same compound?
A: 0%

Q: What about the pest or weed control at 250 g/ha ([13]; 360 h, visually evaluated after 13 to 15 d, read-out: Plant response rating, Sedge, Umbrella (0 to 100 scale where 0 is no effect and 100 is complete control)) of the same compound?
A: 0%
